The values below come from PMC8320619 (Current Research in Toxicology, 2020).

Usually IC50 stands for the concentration at which inhibition is half-maximal. A low value points to greater potency.

The target of this test is T1, multidrug resistance associated protein 4 (MRP4) (Homo sapiens, UniProt O15439).
T1 sequence (O15439 1-1325): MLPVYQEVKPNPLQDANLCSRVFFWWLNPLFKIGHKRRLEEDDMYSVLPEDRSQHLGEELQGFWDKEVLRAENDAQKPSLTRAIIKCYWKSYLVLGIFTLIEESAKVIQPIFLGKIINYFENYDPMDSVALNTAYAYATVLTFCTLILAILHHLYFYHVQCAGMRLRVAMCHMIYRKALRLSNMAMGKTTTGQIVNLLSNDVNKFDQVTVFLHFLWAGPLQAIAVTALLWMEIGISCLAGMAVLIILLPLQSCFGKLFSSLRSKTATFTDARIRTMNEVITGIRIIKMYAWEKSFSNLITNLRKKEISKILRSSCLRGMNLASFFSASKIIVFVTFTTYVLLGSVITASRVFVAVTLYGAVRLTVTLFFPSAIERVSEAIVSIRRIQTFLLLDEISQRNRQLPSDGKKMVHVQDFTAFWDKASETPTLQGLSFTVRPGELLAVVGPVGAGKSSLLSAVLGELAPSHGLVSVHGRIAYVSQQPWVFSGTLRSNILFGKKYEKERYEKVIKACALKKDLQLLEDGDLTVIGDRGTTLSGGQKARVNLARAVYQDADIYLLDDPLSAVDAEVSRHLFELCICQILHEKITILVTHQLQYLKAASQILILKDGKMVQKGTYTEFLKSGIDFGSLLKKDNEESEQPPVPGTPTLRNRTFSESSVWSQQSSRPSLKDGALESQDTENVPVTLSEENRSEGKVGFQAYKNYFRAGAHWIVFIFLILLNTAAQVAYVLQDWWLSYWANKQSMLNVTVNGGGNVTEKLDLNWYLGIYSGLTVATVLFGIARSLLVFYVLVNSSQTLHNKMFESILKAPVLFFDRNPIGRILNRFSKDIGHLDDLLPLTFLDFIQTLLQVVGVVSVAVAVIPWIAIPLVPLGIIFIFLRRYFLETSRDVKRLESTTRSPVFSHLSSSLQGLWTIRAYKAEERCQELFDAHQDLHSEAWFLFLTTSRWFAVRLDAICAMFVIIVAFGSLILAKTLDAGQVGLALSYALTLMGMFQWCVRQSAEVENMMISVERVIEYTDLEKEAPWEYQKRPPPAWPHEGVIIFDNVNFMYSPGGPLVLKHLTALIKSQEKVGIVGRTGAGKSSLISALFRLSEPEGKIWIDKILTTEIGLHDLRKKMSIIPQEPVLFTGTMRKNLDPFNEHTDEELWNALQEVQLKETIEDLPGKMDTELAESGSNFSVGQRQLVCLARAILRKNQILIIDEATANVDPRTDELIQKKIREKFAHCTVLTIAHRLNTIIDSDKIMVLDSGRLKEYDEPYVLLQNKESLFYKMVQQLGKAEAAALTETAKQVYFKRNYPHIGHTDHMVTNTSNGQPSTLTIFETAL
The format is biochemical.

`CC(=O)Nc1ccc(O)c(SC[C@H](N)C(=O)O)c1` [APAP-CYS, acetaminophen cysteine] returned an IC50 of 125 µM.
